Test results: patent US10682323B2, “Therapeutic agent for glaucoma” (TOA EIYO LTD., priority 2016, dated 2020)

Key:
[1] = Determination of Log D value (flask shaking method); assay type: physicochemical; settings: pH 6.8; partition between n-octanol and second solution for the disintegration test (16th revised Japanese Pharmacopoeia), room temperature
Description: More specifically, the Log D is more preferably 1.6 or more and 2.3 or less, still more preferably 1.8 or more and 2.2 or less, and particularly preferably 1.8 or more and 2.1 or less. Here, the Log D value in the present invention is a compound partition coefficient between n-octanol and a second solution of a disintegration test of the 16th revised Japanese Pharmacopoeia.
The Log D value was determined using a flask shaking method, where a test compound partition coefficient between n-octanol and the second solution for the disintegration test defined in the 16th revised Japanese Pharmacopoeia was calculated. Specifically, in a microtube containing 2 mg of the test compound, n-octanol (0.25 mL) and the second solution for the disintegration test (0.25 mL) were mixed. The tube was shaken in a multi shaker at room temperature for 60 minutes, and allowed to stand until the two phases were completely separated. In the microtube, 10 μL of an n-octanol phase was diluted with 190 μL of 85% methanol and mixed, thereby obtaining an organic phase test solution. 100 μL of the second solution phase for the disintegration test was diluted with 100 μL of 50% methanol, and mixed, thereby obtaining an aqueous phase test solution. The organic phase test solution and the aqueous phase test solution were filtered, respectively, and the concentration of the test compound in these test solutions were measured, using high performance liquid chromatography. Then, from the measured concentration and dilution rate, the Log D was calculated.
That is, the Log D of the present specification is represented by the following equation: Log D=Log10([concentration of test compound in organic phase test solution]/[concentration of test compound in aqueous phase test solution])+1 [Equation 1]
The second solution for the disintegration test herein refers to, as defined in the 16th revised Japanese Pharmacopoeia, a liquid obtained by adding to 250 mL of a 0.2 mol/L potassium dihydrogenphosphate reagent, 118 mL of a 0.2 mol/L sodium hydroxide reagent, and water for adjusting to 1000 mL volume.

[2] = system: Rabbits with normal intraocular pressure; assay: Influence on intraocular pressure in rabbits with normal intraocular pressure; assay type: in vivo; settings: rabbit, 50 μL of 0.1 w/v % solution instilled into one eye, three hours after administration, saline eye minus test eye, average of three
Description: Rabbits (strain: Std:NZW, sex: male) with normal intraocular pressure were acclimated to breeding environment for more than three weeks, and subjected to test (three rabbits per one group).
A test compound was weighed, and a required amount of a 10 mmol/L or 20 mmol/L tris hydrochloric acid buffer solution was added thereto with a micropipette and dissolved therein. If necessary, a 1 mol/L hydrochloric acid or a 1 mol/L sodium hydroxide solution was used to prepare a physiological pH, to obtain the test compound solution (0.1 w/v % solution).
50 μL of the test compound solution was instilled into one eye, and 50 μL of a saline solution was instilled into the other eye as a negative control. Three hours after administration, intraocular pressure was measured. In addition, the measurement of intraocular pressure was repeated in the manner of right eye→left eye→right eye→left eye→ . . . , and continued until the changes of three consecutive intraocular pressures of the right eye and the left eye were within 1 mmHg, respectively. The average of three intraocular pressures at that time was recorded as the intraocular pressure at that time. In addition, ΔIOP (mmHg) was calculated by subtracting the intraocular pressure of the eye for instillation of the test compound solution from the intraocular pressure of the eye for instillation of the saline solution.
In addition, the data represents an average of three tests per one group.

O=C(O)CCCCN(CCc1ccccc1OCc1ccc(CCc2ccccc2)cc1)Cc1ccc(C(=O)O)cc1 [Comparative Compound 1, reference compound]
logD [1]: 1.5 | ΔIOP [2]: 0.3 mmHg

O=C(O)CCCCN(CCc1ccccc1OCc1ccc(CCc2ccccc2)cc1)C1COc2cc(C(=O)O)ccc21 (centres unmarked) [Comparative Compound 2, reference compound]
logD [1]: 2.59 | ΔIOP [2]: 1.5 mmHg

N#Cc1cccc([C@H](CN(CCCCC(=O)O)Cc2ccc(C(=O)O)cc2)OCc2ccc(Oc3ccccc3)cc2)c1 [Comparative Compound 3, reference compound]
logD [1]: 1.32 | ΔIOP [2]: 1.1 mmHg

CC(C)(C)c1cc(CO[C@@H](CN(CCCCC(=O)O)Cc2ccc(C(=O)O)cc2)c2ccccc2)cc(C(C)(C)C)c1 [Comparative Compound 4, reference compound]
logD [1]: 2.78 | ΔIOP [2]: 0.2 mmHg

O=C(O)CCCCN(Cc1ccc(C(=O)O)cc1)C[C@H](OCc1ccc(CCc2ccc(Cl)cc2)cc1)c1ccccc1 [Compound No. 6, (−)-4-([N-(4-carboxybutyl)-N-[(2R)-2-[4-[2-(4-chlorophenyl)ethyl]benzyloxy]-2-phenylethyl]amino]methyl)benzoic acid]
logD [1]: 2.02 | ΔIOP [2]: 3.4 mmHg

O=C(O)CCCCN(CCc1ccccc1OCc1cccc2c1CCCC2)[C@H]1CCCc2cc(C(=O)O)ccc21 [Compound No. 8, (+)-(5S)-5-[N-(4-carboxybutyl)-N-[2-[2-(5,6,7,8-tetrahydronaphthalene-1-ylmethoxy)phenyl]ethyl]amino]-5,6,7,8-tetrahydronaphthalene-2-carboxylic acid]
logD [1]: 1.87 | ΔIOP [2]: 5.2 mmHg

O=C(O)CCCCN(Cc1ccc(C(=O)O)cc1)C[C@H](OCc1ccc(CCc2ccccc2)cc1)c1ccccc1 [Compound No. 14, (−)-4-([N-(4-carboxybutyl)-N-[(2R)-2-[4-(2-phenylethyl)benzyloxy]-2-phenylethyl]amino]methyl)benzoic acid]
logD [1]: 2.04 | ΔIOP [2]: 5.0 mmHg
